Laboratory results reported in ChEMBL document CHEMBL4622870, “Design, synthesis and evaluation of hydrazine and acyl hydrazone derivatives of 5-pyrrolidin-2-one as antifungal agents” (Bioorg Med Chem Lett, 2020).

Legend:
HEK293 = test: Cytotoxicity against human HEK293 cells assessed as effect on cell viability measured after 72 hrs by MTS assay; format: cell-based; settings: hek293, 72 h
Fusarium solani [1] = test: Antifungal activity against Fusarium solani assessed as fungal growth inhibition by micro-dilution method; format: functional
Penicillium ochrochloron = test: Antifungal activity against Penicillium ochrochloron assessed as fungal growth inhibition at 100 ug/ml by micro-dilution method relative to control; format: functional; settings: read-out: GI
Geotrichum candidum [2] = test: Antifungal activity against Geotrichum candidum assessed as fungal growth inhibition by micro-dilution method; format: functional
Fusarium solani [3] = test: Antifungal activity against Fusarium solani assessed as fungal growth inhibition at 100 ug/ml by micro-dilution method relative to control; format: functional; settings: read-out: GI
Pichia kudriavzevii = test: Antifungal activity against Candida krusei assessed as fungal growth inhibition at 100 ug/ml by micro-dilution method relative to control; format: functional; settings: read-out: GI
[4] = system: Cladosporium cladosporioides; test: Antifungal activity against Cladosporium cladosporioides assessed as fungal growth inhibition at 100 ug/ml by micro-dilution method relative to control; format: functional; settings: read-out: GI
Botrytis cinerea = test: Antifungal activity against Botrytis cinerea assessed as fungal growth inhibition at 100 ug/ml by micro-dilution method relative to control; format: functional; settings: read-out: GI
Geotrichum candidum [5] = test: Antifungal activity against Geotrichum candidum assessed as fungal growth inhibition at 50 ug/ml by micro-dilution method relative to control; format: functional; settings: read-out: GI
Sclerotinia sclerotiorum = test: Antifungal activity against Sclerotinia sclerotiorum assessed as fungal growth inhibition at 100 ug/ml by micro-dilution method relative to control; format: functional; settings: read-out: GI
Alternaria alternata = test: Antifungal activity against Alternaria alternata assessed as fungal growth inhibition at 100 ug/ml by micro-dilution method relative to control; format: functional; settings: read-out: GI
Aspergillus oryzae = test: Antifungal activity against Aspergillus oryzae assessed as fungal growth inhibition at 100 ug/ml by micro-dilution method relative to control; format: functional; settings: read-out: GI
Geotrichum candidum [6] = test: Antifungal activity against Geotrichum candidum assessed as fungal growth inhibition at 100 ug/ml by micro-dilution method relative to control; format: functional; settings: read-out: GI
Candida tropicalis = test: Antifungal activity against Candida tropicalis assessed as fungal growth inhibition at 100 ug/ml by micro-dilution method relative to control; format: functional; settings: read-out: GI
Kluyveromyces marxianus = test: Antifungal activity against Candida pseudotropicalis assessed as fungal growth inhibition at 100 ug/ml by micro-dilution method relative to control; format: functional; settings: read-out: GI
Paecilomyces variotii = test: Antifungal activity against Paecilomyces variotii assessed as fungal growth inhibition at 100 ug/ml by micro-dilution method relative to control; format: functional; settings: read-out: GI

MIC50 (Fusarium solani [1]) [µg/mL] | MIC50 (Geotrichum candidum [2]) [µg/mL] | Compound | Activity (HEK293) | inhibition of growth at 100 µg/mL (Penicillium ochrochloron) [%] | inhibition of growth at 100 µg/mL (Fusarium solani [3]) [%] | inhibition of growth at 100 µg/mL (Pichia kudriavzevii) [%] | inhibition of growth at 100 µg/mL [4] [%] | inhibition of growth at 100 µg/mL (Botrytis cinerea) [%] | inhibition of growth at 50 µg/mL (Geotrichum candidum [5]) [%] | inhibition of growth at 100 µg/mL (Sclerotinia sclerotiorum) [%] | inhibition of growth at 100 µg/mL (Alternaria alternata) [%] | inhibition of growth at 100 µg/mL (Aspergillus oryzae) [%] | inhibition of growth at 100 µg/mL (Geotrichum candidum [6]) [%] | inhibition of growth at 100 µg/mL (Candida tropicalis) [%] | inhibition of growth at 100 µg/mL (Kluyveromyces marxianus) [%] | inhibition of growth at 100 µg/mL (Paecilomyces variotii) [%]
> 75 | > 75 | O=C1CC[C@@H](C(=O)N/N=C/c2ccc(CO)o2)N1 | Non-Toxic | 28 | 72 | 66 | 0 | 0 | < 10 | 0 | 42 | 0 | 88 | 38 | 28 | 45
 | > 75 | O=C1CC[C@@H](C(=O)N/N=C/c2ccccc2)N1 | Non-Toxic | 25 | 59 | 40 | 12 | 0 | < 10 | 0 | 20 | 0 | 83 | 15 | 7 | 46
